Data: paper PMC9632963, “Preclinical characterization and phase I clinical trial of CT053PTSA targets MET, AXL, and VEGFR2 in patients with advanced solid tumors” (Frontiers in Immunology, 2022)

Tests used:
[1] = target: TXK (Homo sapiens, UniProt P42681); assay: Kinase inhibition assay (LANCE or HTRF); assay type: biochemical; details: ATP at Km
Procedure: (§2) The IC50 values were determined by measuring phosphorylation of peptide substrate poly at ATP concentrations at the Km.

[2] = target: RON (Homo sapiens, UniProt Q04912); assay: Kinase inhibition assay (LANCE or HTRF); assay type: biochemical; details: ATP at Km
Procedure: as §2

[3] = system: HUVECs; assay: Endothelial cell tubule formation assay, VEGF-induced; assay type: cell-based; details: Homo sapiens, HUVEC, VEGF 40 ng/ml, 8 hours
Excerpt: (§1) Then, after staining with Calcein AM (ThermoFisher, CA, USA), images of tubule formation were captured, and the total tube area was quantified with ImageXpress HCS (Molecular Devices, CA, USA).

[4] = system: HUVECs; assay: Endothelial cell tubule formation assay, HGF-induced; assay type: cell-based; details: Homo sapiens, HUVEC, HGF 45 ng/ml, 8 hours
Excerpt: as §1

[5] = system: HS746T; assay: Cell proliferation assay (CellTiter-Glo, 72 hours); assay type: cell-based; details: Homo sapiens, read-out: IC50 anti-proliferative
Procedure: (§3) Human gastric tumor cell lines with high MET expression levels, namely, the GTL-16, MKN45, SNU638, Hs746T, SNU-620, and SNU-5 cell lines, were used in the assay. These cell lines were obtained from American Type Culture Collection (ATCC), Japanese Collection of Research Bioresources (JCRB), Shanghai Institutes of Biological Sciences, CAS (SIBS), Korean Cell Line Bank (KCLB) or National Institutes of Health (NIH). […] Cell viability was measured after 72 hours using a CellTiter-Glo Luminescent Cell Viability Assay Kit (Promega, WI, USA) according to the manufacturer’s instructions.

[6] = system: SNU-16; assay: Cell proliferation assay (CellTiter-Glo, 72 hours); assay type: cell-based; details: Homo sapiens, read-out: IC50 anti-proliferative
Procedure: as §3

[7] = system: AZ521; assay: Cell proliferation assay (CellTiter-Glo, 72 hours); assay type: cell-based; details: Homo sapiens, AZ-521, read-out: IC50 anti-proliferative
[8] = system: SNU-601; assay: Cell proliferation assay (CellTiter-Glo, 72 hours); assay type: cell-based; details: Homo sapiens, read-out: IC50 anti-proliferative
Procedure: (§4) These cell lines were obtained from American Type Culture Collection (ATCC), Japanese Collection of Research Bioresources (JCRB), Shanghai Institutes of Biological Sciences, CAS (SIBS), Korean Cell Line Bank (KCLB) or National Institutes of Health (NIH). […] Cell viability was measured after 72 hours using a CellTiter-Glo Luminescent Cell Viability Assay Kit (Promega, WI, USA) according to the manufacturer’s instructions.

[9] = system: NUGC-4; assay: Cell proliferation assay (CellTiter-Glo, 72 hours); assay type: cell-based; details: Homo sapiens, read-out: IC50 anti-proliferative
Procedure: as §4

[10] = Body weight of tumor-bearing mice in efficacy studies; assay type: in vivo; details: all groups, 1-20 mg/kg
Procedure: Human tumor xenografts were established in female BALB/cA nude mice (5-6 weeks old) by administering the SNU-5 and MKN-45 cells, which have high MET expression levels. For efficacy studies in patient-derived tumor xenograft (PDX) mouse models, MET-overexpressing GA0046 and GA3121 tumors (obtained from Crownbio, CA, USA) were established by directly implanting surgical tissues into immunodeficient mice. […] The subcutaneous tumor size and body weight were measured twice weekly. The tumor volumes were determined by measuring two perpendicular diameters with calipers and calculated as (length × width^2)/2.

Sequence of RON (Q04912 25-1400): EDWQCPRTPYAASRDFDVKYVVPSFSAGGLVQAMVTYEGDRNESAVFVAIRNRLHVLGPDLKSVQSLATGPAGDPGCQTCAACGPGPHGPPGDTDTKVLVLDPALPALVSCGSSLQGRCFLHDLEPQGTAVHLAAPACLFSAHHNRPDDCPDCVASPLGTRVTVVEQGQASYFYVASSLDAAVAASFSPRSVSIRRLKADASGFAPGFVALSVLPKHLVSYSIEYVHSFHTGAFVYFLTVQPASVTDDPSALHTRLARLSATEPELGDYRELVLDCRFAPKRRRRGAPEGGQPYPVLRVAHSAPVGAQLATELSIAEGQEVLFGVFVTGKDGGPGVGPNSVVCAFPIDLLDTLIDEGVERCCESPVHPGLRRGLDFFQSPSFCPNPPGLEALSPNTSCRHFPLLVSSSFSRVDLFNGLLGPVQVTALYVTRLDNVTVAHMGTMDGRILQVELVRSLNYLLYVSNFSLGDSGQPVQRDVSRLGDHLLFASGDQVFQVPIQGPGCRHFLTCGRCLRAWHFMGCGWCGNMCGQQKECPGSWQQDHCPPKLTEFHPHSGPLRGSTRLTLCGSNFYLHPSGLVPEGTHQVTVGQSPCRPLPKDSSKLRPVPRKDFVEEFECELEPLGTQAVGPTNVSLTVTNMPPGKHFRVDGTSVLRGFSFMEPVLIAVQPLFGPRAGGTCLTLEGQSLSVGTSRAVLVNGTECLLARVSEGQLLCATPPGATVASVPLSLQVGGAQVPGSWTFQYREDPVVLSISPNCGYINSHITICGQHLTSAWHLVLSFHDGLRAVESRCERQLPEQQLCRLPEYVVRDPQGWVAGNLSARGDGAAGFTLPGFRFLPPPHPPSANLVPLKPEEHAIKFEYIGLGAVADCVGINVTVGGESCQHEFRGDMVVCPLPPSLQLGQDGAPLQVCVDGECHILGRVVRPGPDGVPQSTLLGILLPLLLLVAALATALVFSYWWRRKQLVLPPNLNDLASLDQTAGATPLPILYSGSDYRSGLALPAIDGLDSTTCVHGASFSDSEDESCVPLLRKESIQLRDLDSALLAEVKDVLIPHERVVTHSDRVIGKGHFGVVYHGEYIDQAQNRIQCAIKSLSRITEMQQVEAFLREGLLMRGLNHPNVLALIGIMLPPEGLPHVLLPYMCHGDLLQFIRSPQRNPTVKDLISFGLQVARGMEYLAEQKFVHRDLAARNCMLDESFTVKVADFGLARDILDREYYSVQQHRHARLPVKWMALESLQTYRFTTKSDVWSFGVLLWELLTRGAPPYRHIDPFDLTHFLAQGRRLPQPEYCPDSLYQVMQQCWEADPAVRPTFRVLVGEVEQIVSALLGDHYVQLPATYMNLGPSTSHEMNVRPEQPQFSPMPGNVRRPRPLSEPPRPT
Sequence of TXK (P42681 whole entry): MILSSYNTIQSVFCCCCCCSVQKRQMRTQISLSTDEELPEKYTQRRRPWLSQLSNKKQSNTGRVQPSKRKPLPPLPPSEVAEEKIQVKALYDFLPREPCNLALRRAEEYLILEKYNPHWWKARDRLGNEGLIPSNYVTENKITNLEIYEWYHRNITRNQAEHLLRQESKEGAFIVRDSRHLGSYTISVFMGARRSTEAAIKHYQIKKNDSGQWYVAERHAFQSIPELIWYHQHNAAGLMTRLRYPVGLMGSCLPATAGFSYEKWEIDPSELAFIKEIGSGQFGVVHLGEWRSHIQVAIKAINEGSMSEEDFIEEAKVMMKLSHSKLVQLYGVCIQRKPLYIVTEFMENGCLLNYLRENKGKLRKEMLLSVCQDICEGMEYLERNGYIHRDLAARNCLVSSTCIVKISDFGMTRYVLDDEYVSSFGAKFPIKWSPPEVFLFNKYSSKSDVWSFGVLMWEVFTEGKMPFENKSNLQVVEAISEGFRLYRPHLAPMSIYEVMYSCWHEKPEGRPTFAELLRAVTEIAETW

Cc1c(C(=O)Nc2ccc(Oc3ccnc4cc(OCC(C)(C)O)ccc34)c(F)c2)c(=O)n(-c2ccccc2)n1C [CT053]
IC50 [1]: 270 nM | IC50 [2]: 160 nM | IC50 ([3]; read-out: IC50, percentage area of tube formation (+ VEGF)): 20 nM | IC90 ([3]; read-out: IC90, Tube Area % Effect (+ VEGF)): 170 nM | IC50 ([4]; read-out: IC50, percentage area of tube formation (+ HGF)): 310 nM | IC90 ([4]; read-out: IC90, Tube Area % Effect (+ HGF)): > 3000 nM | IC50 [5]: 140 nM | IC50 [6]: > 10 µM | IC50 [7]: > 10 µM | IC50 [8]: > 10 µM | IC50 [9]: > 10 µM | change in body weight [10]: no significant change in body weight
